What was measured:
AML-193 = assay: AML cell line in vitro proliferation assay; assay type: cell-based
Protocol: (§1) Narazaciclib was serially diluted with culture medium to 9 final assay concentrations from 0.01 to 100 μM. The assay was performed with both a negative control (vehicle) and a positive control (Cisplatin) in triplicate. The AML cell lines at log-growth phase were cultured in 96-well plates (black transparent flat bottom 96-well plate, Corning, Cat# 3603, FBS, ExCell Bio., Cat# FND500) in the presence of narazaciclib or Cisplatin at various concentrations for 72 h or 120 h (only for AML-193 cell line), followed by CTG readout according to the manufacturer’s instruction (CellTiter-Glo Luminescent Cell Viability Assay, Promega, Cat# G7573). Viability%=Lumdrug-Lummedium control/Lumcell control-Lummedium control×100%. Lumcell control-Lummedium controlas100%,LumMediumcontrolas0%. Proliferationfold increase=D5-LumNone treated-LumMedium control/D2LumNone treated-LumMedium control
(§2) Dose–response curves were fitted by a 4-parameter log-logistic model: Inhibition%=Bottom+Top-Bottom/1+10^logEC50-x∗HillSlope where Top and Bottom are the two asymptotes of the sigmoidal curve, EC50 is the relative IC50, concentration x is in log-10 scale and HillSlope is the slope at the EC50 point on the fitted curve. The fitted area under the curve (AUC) was calculated by: Inhibition%=Bottom+Top-Bottom/1+10^logEC50-x∗HillSlope where a represents the log10-transformed minimal concentration and b represents the log10-transformed maximal concentration. An extremely strong positive correlation between the absolute IC50 and AUC is shown in Supplemental Fig. S5.

EOL1 = assay: AML cell line in vitro proliferation assay; assay type: cell-based
Protocol: as §1, §2

HEL-9217 = assay: AML cell line in vitro proliferation assay; assay type: cell-based
Protocol: as §1, §2

HL-60 = assay: AML cell line in vitro proliferation assay; assay type: cell-based
Protocol: as §1, §2

KASUMI-1 = assay: AML cell line in vitro proliferation assay; assay type: cell-based
Protocol: as §1, §2

KG-1A = assay: AML cell line in vitro proliferation assay; assay type: cell-based
Protocol: as §1, §2

MOLM-13 = assay: AML cell line in vitro proliferation assay; assay type: cell-based
Protocol: as §1, §2

NB4 = assay: AML cell line in vitro proliferation assay; assay type: cell-based
Protocol: as §1, §2

NOMO-1 = assay: AML cell line in vitro proliferation assay; assay type: cell-based
Protocol: as §1, §2

OCI-AML-2 = assay: AML cell line in vitro proliferation assay; assay type: cell-based
Protocol: as §1, §2

OCI-M2 = assay: AML cell line in vitro proliferation assay; assay type: cell-based
Protocol: as §1, §2

SKM-1 = assay: AML cell line in vitro proliferation assay; assay type: cell-based
Protocol: as §1, §2

TF-1 = assay: AML cell line in vitro proliferation assay; assay type: cell-based
Protocol: as §1, §2

[1] = system: Ba/F3-ETV6-CSF1R xenograft; assay: Ba/F3-ETV6-CSF1R subcutaneous xenograft model; assay type: in vivo, NOD/scid mice; details: either 50 mg/kg or 100 mg/kg
Excerpt: The subcutaneous cell line xenograft (CDX) models and systemic patient-derived xenograft (PDX) models of AML have been extensively described before. For the subcutaneous MV-4-11 CDX model, 5 × 10^6 MV-4-11 tumor cells harvested from exponential growth phase were mixed with Matrigel (1:1) and then inoculated into the right front flank region of 6- to 7-week-old female NOD/scid mice for tumor development. MV-4-11 tumor-bearing mice were randomized into 5 groups (N = 8) when their tumor volume reached approximately 100 mm^3 and received their designated treatments following randomization. Narazaciclib was administrated intraperitoneally at 100 mg/kg twice per week for 3 weeks, while Azacitidine was administrated intraperitoneally at 3 mg/kg twice per week for 3 weeks. For the subcutaneous Ba/F3-ETV6-CSF1R CDX model, 1 × 10^6 Ba/F3-ETV6-CSF1R tumor cells harvested from exponential growth phase were mixed with Matrigel (1:1) and then inoculated into the right front flank region of 6- to 8-week-old female NOD/scid mice for tumor development. Ba/F3-ETV6-CSF1R tumor-bearing mice were randomized into 5 groups (N = 6) when their tumor volume reached approximately 100 mm^3 and received their designated treatments following randomization. […] Tumor volume and body weight were measured at different time points and tumor growth inhibition (TGI) was used as index to determine the therapeutic efficacy.

IC50 (HL-60; Homo sapiens, HL-60, 72 h, CTG): 6.14 µM | IC50 (MOLM-13; Homo sapiens, MOLM-13, 72 h, CTG): 0.103 µM | IC50 (OCI-AML-2; Homo sapiens, OCI-AML2, OCI-AML-2, 72 h, CTG): 1.16 µM | IC50 (OCI-M2; OCI-M2, 72 h, CTG): > 100 µM | IC50 (SKM-1; Homo sapiens, SKM-1, 72 h, CTG): 1.94 µM
Compound: CN1CCN(c2ccc(Nc3ncc4cc(C#N)c(=O)n(C5CCCC5)c4n3)cc2)CC1 [Narazaciclib, narazaciclib]
Classification by AUC (AML-193; AML-193): Intermediate (2.4 < AUC < 2.8, intermediate) | IC50 (AML-193; AML-193, 120 h, CTG): 6.29 µM | AUC (AML-193; AML-193, area under the dose–response curve): 2.514 | Classification by AUC (EOL1; EOL1): Sensitive (AUC ≤ 2.4, sensitive) | AUC (EOL1; EOL1, area under the dose–response curve): 0.5917 | IC50 (EOL1; Homo sapiens, EOL1, 72 h, CTG): 0.035 µM | Classification by AUC (HEL-9217; HEL-9217): Insensitive (AUC ≥ 2.8, insensitive) | AUC (HEL-9217; HEL-9217, area under the dose–response curve): 3.209 | IC50 (HEL-9217; Homo sapiens, HEL 92.1.7, HEL-9217, 72 h, CTG): 15.7 µM | Classification by AUC (HL-60; HL-60): Insensitive (AUC ≥ 2.8, insensitive) | AUC (HL-60; HL-60, area under the dose–response curve): 2.836 | IC50 (KASUMI-1; Homo sapiens, KASUMI-1, 72 h, CTG): 0.169 µM | Classification by AUC (KASUMI-1; KASUMI-1): Sensitive (AUC ≤ 2.4, sensitive) | AUC (KASUMI-1; KASUMI-1, area under the dose–response curve): 1.307 | Classification by AUC (KG-1A): Sensitive (AUC ≤ 2.4, sensitive) | IC50 (KG-1A; Homo sapiens, 72 h, CTG): 1.06 µM | AUC (KG-1A; area under the dose–response curve): 2.289 | Classification by AUC (MOLM-13; MOLM-13): Sensitive (AUC ≤ 2.4, sensitive) | AUC (MOLM-13; MOLM-13, area under the dose–response curve): 1.068 | IC50 (NB4; Homo sapiens, NB-4, NB4, 72 h, CTG): 3.28 µM | Classification by AUC (NB4; NB4): Insensitive (AUC ≥ 2.8, insensitive) | AUC (NB4; NB4, area under the dose–response curve): 2.865 | IC50 (NOMO-1; Homo sapiens, NOMO-1, 72 h, CTG): > 100 µM | Classification by AUC (NOMO-1; NOMO-1): Insensitive (AUC ≥ 2.8, insensitive) | AUC (NOMO-1; NOMO-1, area under the dose–response curve): 3.207 | Classification by AUC (OCI-AML-2; OCI-AML-2): Sensitive (AUC ≤ 2.4, sensitive) | AUC (OCI-AML-2; OCI-AML-2, area under the dose–response curve): 2.116 | Classification by AUC (OCI-M2; OCI-M2): Insensitive (AUC ≥ 2.8, insensitive) | AUC (OCI-M2; OCI-M2, area under the dose–response curve): 3.46 | Classification by AUC (SKM-1; SKM-1): Sensitive (AUC ≤ 2.4, sensitive) | AUC (SKM-1; SKM-1, area under the dose–response curve): 2.323 | IC50 (TF-1; Homo sapiens, TF-1, 72 h, CTG): 50.8 µM | Classification by AUC (TF-1; TF-1): Insensitive (AUC ≥ 2.8, insensitive) | AUC (TF-1; TF-1, area under the dose–response curve): 3.502 | tumor growth [1]: significantly delayed the tumor growth
